Experimental data from patent US20230286995A1, “METABOLICALLY STABLE PYRIMIDINYL DIHYDROQUINOXALINONES AS TUBULIN POLYMERIZATION INHIBITORS” (UNIVERSITY OF TENNESSEE RESEARCH FOUNDATION, priority 2022, published 2023).
Like-named read-outs stand apart in the source and are kept apart here.

Legend:
DU-145/TxR = assay: Cytotoxicity assay (MTS, 72 h); assay type: cell-based; settings: Homo sapiens, DU-145, read-out: IC50 ± SEM (nM) DU-145/TxR; Table 2
porcine brain tubulin = target: T1, porcine brain tubulin (Sus scrofa, UniProt P02550+P02554); assay: Tubulin polymerization inhibitory assay (FIG. 29A); assay type: biochemical; settings: 10 μM, 37° C.; DMSO control 0.3
T1 construct: tubulin mixture containing porcine brain tubulin (3 mg/mL); purchased Cytoskeleton, Inc. T-238P; host or cells: porcine brain
Experimental: Tubulin polymerization inhibitory assay: In vitro tubulin polymerization assay was carried out according to the manufacturers' instructions (Cytoskeleton). Briefly, 10 μM of 5v was added into tubulin protein (3 mg/mL, purity>99%), and the mixture was transferred into a microplate reader and incubated at 37° C. […] Colchicine and paclitaxel were used as positive controls. […] The assay was carried out in duplicate.

Mia PaCa-2 = assay: Cytotoxicity assay (MTS, 72 h); assay type: cell-based; settings: Homo sapiens, Table 6, read-out: IC50 (nM) Pancreatic cancer Mia PaCa-2
Experimental: Mia PaCa-2 and PANC-1 cells were seeded in 96-well plates at 4000 and 5000 cells per well, respectively.
Cytotoxicity Assay. Cancer cells were seeded at a concentration of 3,500-5,000 cells per well in a 96-well plate. […] Each experiment consisted of four replicates. […] A microplate reader was used to record the absorbance at 490 nm (BioTek Instruments Inc., Winooski, Vt.). IC50 values were calculated by GraphPad Prism software (San Diego, Calif.).

[1] = system: A375/TxR, M14/LCC6MDR1, MDA-MB-231/TxR, PC3/TxR, and DU145/TxR; assay: Cell proliferation inhibition assay (MTS), paclitaxel-resistant panel; assay type: cell-based, human
Experimental: Cell proliferation inhibition assay: The cell proliferation inhibitory effects of tested compounds were first determined through MTS assay as previously described. In short, 3000 to 7500 cells were added to a 96-well cell culture plate followed by the treatment of the test compounds (0.1 nM to 3 μM) in quadruplicate after seeding and overnight incubation. After 72 hours of treatment, MTS (Promega) was added to the wells and the absorbance was measured at […] after incubating for 1.5 to 2 h. […] Briefly, A375/TxR cells (1000 cells/well) were treated with growth medium containing 0.5 nM, 1 nM, or 2 nM of 5v and incubated for over 7 days (the incubation medium was changed every 3 days). After fixing and staining with 0.5% crystal violet, the cell colonies were quantified by the Hybrid Counting module of the Keyence BZ-X700 microscope. The assay was performed in triplicate.

[2] = system: Mia PaCa-2-Luc xenografts; assay type: in vivo, NSG mice; settings: 2 mg/kg i.v., 1 dose/week, 42 days
Experimental: All animal procedures were performed in accordance with the protocols approved by the Institutional Animal Care and Use Committee (IACUC) at UTHSC. Two pancreatic cancer cell lines, Mia PaCa-2-Luc and PANC-1-Luc, were used in this study. 50 μL of Mia PaCa-2-Luc (5×10^6 cells in HBSS) or PANC-1-Luc (3×10^6 cells in HBSS) cell suspension was mixed with same volume of Matrigel (1:1 mixture) right before use. Cell mixture was subcutaneously injected to the right flank of each NSG mice (male, 6-8 weeks). […] The control group received no treatment. Treatment started when the average tumor size reached 70-100 mm^3. […] Tumor volume and body weight were measured twice per week. Tumor volume was calculated by the equation: volume (mm^3)=0.5×(length×width^2). All animals were euthanized at the end of the study. Tumors were excised, recorded for ex-vivo weight and size, and imaged.

A-253 and Detroit 562 = assay: Cytotoxicity in head and neck cancer cell lines; assay type: cell-based; settings: Homo sapiens; FIG. 39A; read-out: IC50 values, range over A-253 and Detroit 562
Experimental: A panel of dihydroquinoxalinones were tested in two head and neck cancer cell lines, A-253 and Detroit 562. A-253 cells are a human salivary epidermoid carcinoma cell line, whereas Detroit 562 is a head and neck squamous cell carcinoma (HNSCC). Oral cancer is the most common type of head and neck cancer and more than 90% of oral cancers are either oral or oropharyngeal squamous cell carcinoma (SCC). A major clinical dilemma is chemotherapy efficiency targeted for head and neck squamous cell carcinoma (HNSCC). The inability to successfully complete cancer treatment utilizing a standard surgical approach due to an advanced stage of HNSCC and/or resistance of SCC cells to conventional chemotherapy and/or radiotherapy leads to a continuous search for new compounds with cytostatic activity and minor side effects.
FIGS. 39B and 39C illustrate the graphical representation of the data. […] For example, at treatment levels as low of 0.5 nM, 12k was able to prevent head and neck cancer cell proliferation almost completely, whereas it required 5 nM of 17ya to achieve similar antiproliferation.

[3] = system: MDA-MB-231 BrM2 brain metastases; assay: MDA-MB-231-BrM2 brain metastasis model, survival study (Experiment 2); assay type: in vivo, NSG mice
Description: (§1) All bioimaging data are shown as total flux (photons/s), calculated using Living Image software. At harvest, all organs were collected and bioimaged ex vivo to confirm location of metastatic signals observed in intact mice and to quantitate metastatic burden specific to that organ.
The decreased cell number injected was selected to try to increase duration of treatment. In this study, mice were harvested only as they met the euthanasia criteria in order to develop a Kaplan-Meier survival curve.

Mia PaCa-2 cells = assay: Scratch migration assay (PDAC); assay type: cell-based, human; settings: 5m 2 nM, PTX 4 nM, 48 h
Experimental: The Mia PaCa-2 cells (25,000 cells/well) were seeded in 96-well plates and allowed to adhere overnight. At 80-90% confluence, scratch was made with a wound maker. After washing off the debris, medium was replaced and tested compounds were added. Cells were live monitored with IncuCyte and pictures obtained every 2 h. Compared with the control, the wound width of cells under different treatment conditions was quantified according to the endpoint width over starting point.

[4] = system: PANC-1 and Mia PaCa-2 cell lines; assay: Cell cycle analysis (PDAC); assay type: cell-based, human
Experimental: The cells were plated in 100-mm dishes at a concentration of 1-2×10^6 cells/dish in DMEM without serum. After serum starvation for 24 h, medium was replaced with complete culture medium containing tested compounds. For cell cycle analysis, the cells were trypsinized and fixed with 70% ethanol in −20° C. overnight. The fixed cells were incubated with 100 μg/mL of RNase A and 50 μg/mL propidium iodide for 30 min at room temperature. Stained cells were analyzed using Bio-Rad ZE5 and ModFit LT 5.0.9 software at Flow cytometry and cell sorting core at the University of Tennessee Health Science Center (UTHSC) and the proportion of G1, S, G2/M phases were determined.

[5] = system: MDA-MB-231 BrM2 brain metastases
Experimental: as §1
A total of 200,000 cells were injected IC into 8-9 week old NSG female mice. […] All mice were harvested at same time on Day 24 of treatment.

T1 sequence (P02550 whole entry): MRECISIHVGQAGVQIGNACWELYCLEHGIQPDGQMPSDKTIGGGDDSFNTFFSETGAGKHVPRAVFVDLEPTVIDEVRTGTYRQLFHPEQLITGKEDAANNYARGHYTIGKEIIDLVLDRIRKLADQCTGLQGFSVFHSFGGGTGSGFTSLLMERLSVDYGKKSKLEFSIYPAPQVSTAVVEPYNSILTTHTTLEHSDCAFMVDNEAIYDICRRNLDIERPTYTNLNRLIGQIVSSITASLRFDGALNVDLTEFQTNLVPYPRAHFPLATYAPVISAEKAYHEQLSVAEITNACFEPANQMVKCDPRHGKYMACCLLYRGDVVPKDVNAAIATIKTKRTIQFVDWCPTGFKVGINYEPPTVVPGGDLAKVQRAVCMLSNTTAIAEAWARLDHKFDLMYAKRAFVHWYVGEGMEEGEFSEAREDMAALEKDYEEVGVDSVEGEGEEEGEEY
T1 sequence (P02554 whole entry): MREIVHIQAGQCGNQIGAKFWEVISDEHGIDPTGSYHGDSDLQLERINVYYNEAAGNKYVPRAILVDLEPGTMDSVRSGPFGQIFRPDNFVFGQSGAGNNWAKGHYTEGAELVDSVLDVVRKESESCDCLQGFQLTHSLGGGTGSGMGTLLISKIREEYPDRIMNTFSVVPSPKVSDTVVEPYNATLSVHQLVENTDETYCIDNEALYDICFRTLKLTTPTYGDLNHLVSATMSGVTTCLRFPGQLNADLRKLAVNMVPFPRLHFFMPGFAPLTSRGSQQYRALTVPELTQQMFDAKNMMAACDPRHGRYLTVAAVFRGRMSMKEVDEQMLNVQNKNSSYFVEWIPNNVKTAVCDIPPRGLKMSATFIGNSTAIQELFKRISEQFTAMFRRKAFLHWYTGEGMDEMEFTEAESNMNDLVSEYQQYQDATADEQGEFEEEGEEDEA

| SMILES | IC50 (DU-145/TxR) | A340 at which tubulin assembly stabilized (porcine brain tubulin) | IC50 (Mia PaCa-2) | IC50 level in paclitaxel-resistant cancer cells [1] | reduction of tumor growth vs control [2] | IC50 (A-253 and Detroit 562) | median survival ([3]; 1.0 mg/kg IV twice per week, vehicle 25 days) | body weight ([3]; Experiment 2) | survival of all treated mice ([3]; all vehicle mice deceased by 30 days) | increased metastasis (photon flux) in vehicle vs 5m treated representative mouse ([3]; day 28, n=1) | metastatic progression in the brain, in vivo photon flux ([3]; mouse, in vivo) | day until which representative treated mouse lived ([3]; vehicle mouse died on day 28) | cell migration / wound healing (Mia PaCa-2 cells) | cell cycle arrest at G2/M phase [4] | photon flux in ex vivo brain of representative animal ([5]; 1 minute capture, vehicle 6.01×10^7) | body weight ([5]; Experiment 1) | extracranial metastasis, ex vivo photon flux ([5]; bone, lungs, spleen) | adverse effects at initial dose ([5]; mouse, in vivo) |
| --- | --- | --- | --- | --- | --- | --- | --- | --- | --- | --- | --- | --- | --- | --- | --- | --- | --- | --- |
| CCNc1nc2c(c(N3CC(=O)Nc4cc(OC)ccc43)n1)CCC2 [Compound 5v, 4-(2-(ethylamino)-6,7-dihydro-5H-cyclopenta[d]pyrimidin-4-yl)-7-methoxy-3,4-dihydroquinoxalin-2(1H)-one] | 1.9 ± 0.3 nM | approximately 0.05 | 3.4 ± 0.4 nM | sub-nanomolar level | – | – | – | – | – | – | – | – | – | – | – | – | – | – |
| COc1ccc2c(c1)NC(=O)CN2c1nc(C)nc2c1CCC2 [Compound 5m, 7-methoxy-4-(2-methyl-6,7-dihydro-5H-cyclopenta[d]pyrimidin-4-yl)-3,4-dihydroquinoxalin-2(1H)-one] | – | – | – | – | 70-80% | 0.52 to 3.2 nM | 36.5 days | gained weight through day 21 of dosing | > 30 days | 6.7 fold | delayed metastatic progression in the brain | 35 days | more effectively inhibited wound healing | dose dependently increase the proportion of cells in G2/M phase | 1.51×10^7 p/s | maintain body weight through day 24 | statistically reduced metastasis to bone, lungs, and spleen | mice lost weight and had diarrhea |
